According to PMC7281072 (Cancers, 2020):

Assays:
[1] = tested on: ERK1,2 phosphorylation; test: ERK1/2 phosphorylation ELISA, UWB1.289+BRCA1 cells; type: cell-based, human; details: for Vmax ± SE, pERK 1/2 inhibition: Michaelis Menten model; for IC50: Homo sapiens, read-out: IC50, pERK 1/2 inhibition
[2] = tested on: OVCAR-5 human ovarian adenocarcinoma xenograft; parameters: species or system CB17 SCID mice; details: mouse, in vivo
[3] = tested on: AKT1,2 phosphorylation; test: AKT phosphorylation ELISA, SK-OV-3 cells; type: cell-based, human; details: for Vmax ± SE, pAKT 1/2 inhibition: Michaelis Menten model; for IC50: Homo sapiens, read-out: IC50, pAKT 1/2 inhibition
[4] = tested on: pERK1,2; test: Western immunoblotting densitometry, pERK1,2, SKOV-3 cells; type: cell-based, human; details: 25 μM; for ratio [pERK1+pERK2]/[GAPDH] band intensity: SKOV-3 cells; for ratio [pERK1+pERK2]/[GAPDH] band intensity, single blot (panel A): panel A lower set, cell line not given
[5] = tested on: UWB1.289 cancer cell line
[6] = tested on: pERK1,2; test: Western immunoblotting densitometry, pERK1,2, OVCAR-3 cells; type: cell-based, human; details: 25 μM; for ratio [pERK1+pERK2]/[GAPDH] band intensity: OVCAR-3 cells; for ratio [pERK1+pERK2]/[GAPDH] band intensity, single blot (panel A): panel A upper set, cell line not given
[7] = tested on: OVCAR-5 cancer cell line; test: cells; details: Homo sapiens, OVCAR-5, 48 h
[8] = tested on: AKT1,2 phosphorylation; test: AKT phosphorylation ELISA, OVCAR-3 cells; type: cell-based, human; details: for Vmax ± SE, pAKT 1/2 inhibition: Michaelis Menten model; for IC50: Homo sapiens, read-out: IC50, pAKT 1/2 inhibition
[9] = tested on: UWB1.289 cancer cell line; test: cells; details: Homo sapiens, UWB1289, 48 h
[10] = tested on: AKT1,2 phosphorylation; test: AKT phosphorylation ELISA, UWB1.289+BRCA1 cells; type: cell-based, human; parameters: Vmax ± SE, pAKT 1/2 inhibition: unit not given beside the values; details: for Vmax ± SE, pAKT 1/2 inhibition: Michaelis Menten model; for IC50: Homo sapiens, read-out: IC50, pAKT 1/2 inhibition
[11] = tested on: OVCAR-3 cancer cell line; test: cells; details: Homo sapiens, OVCAR-3, 48 h
[12] = tested on: SK-OV-3 cancer cell line
[13] = tested on: AKT1,2 phosphorylation; test: AKT phosphorylation ELISA, UWB1.289 cells; type: cell-based, human; details: for Vmax ± SE, pAKT 1/2 inhibition: Michaelis Menten model; for IC50: Homo sapiens, read-out: IC50, pAKT 1/2 inhibition
[14] = tested on: pAKT; test: Western immunoblotting densitometry, pAKT, SKOV-3 cells; type: cell-based, human; details: 25 μM; for ratio [pAKT]/[GAPDH] band intensity: SKOV-3 cells; for ratio [pAKT]/[GAPDH] band intensity, single blot (panel A): panel A lower set, cell line not given, control ratio 0.996
[15] = tested on: OVCAR-3 cancer cell line
[16] = tested on: CB17 SCID mice; details: both, mouse, in vivo, ip
[17] = tested on: UWB1.289+BRCA1 cancer cell line; test: cells; details: Homo sapiens, 48 h
[18] = tested on: ERK1,2 phosphorylation; test: ERK1/2 phosphorylation ELISA, OVCAR-3 cells; type: cell-based, human; details: for Vmax ± SE, pERK 1/2 inhibition: Michaelis Menten model; for IC50: Homo sapiens, read-out: IC50, pERK 1/2 inhibition
[19] = tested on: UWB1.289+BRCA1 cancer cell line
[20] = tested on: ERK1,2 phosphorylation; test: ERK1/2 phosphorylation ELISA, SK-OV-3 cells; type: cell-based, human; details: for Vmax ± SE, pERK 1/2 inhibition: Michaelis Menten model; for IC50: Homo sapiens, read-out: IC50, pERK 1/2 inhibition
[21] = tested on: SKOV-3 human ovarian adenocarcinoma xenograft; parameters: species or system CB17 SCID mice; details: mouse, in vivo
[22] = tested on: OVCAR-5 cancer cell line
[23] = tested on: ERK1,2 phosphorylation; test: ERK1/2 phosphorylation ELISA, UWB1.289 cells; type: cell-based, human; details: for Vmax ± SE, pERK 1/2 inhibition: Michaelis Menten model; for IC50: Homo sapiens, read-out: IC50, pERK 1/2 inhibition
[24] = tested on: SK-OV-3 cancer cell line; test: cells; details: Homo sapiens, SK-OV-3, 48 h
[25] = tested on: AKT1,2 phosphorylation; test: AKT phosphorylation ELISA, OVCAR-5 cells; type: cell-based, human; details: for Vmax ± SE, pAKT 1/2 inhibition: Michaelis Menten model; for IC50: Homo sapiens, read-out: IC50, pAKT 1/2 inhibition
[26] = read-out: GI50 (50% Growth Inhibition)
[27] = read-out: IC50 (cytotoxic effect)

## C[C@]12CC[C@@H]3c4ccc(OC(=O)CCOc5ccc(N(CCCl)CCCl)cc5)cc4CC[C@H]3[C@@H]1CCC(=O)N2 [ENGA-L08E, 12a-methyl-2-oxo-1,2,3,4,4a,4b,5,6,10b,11,12,12a-dodecahydronaphtho[2,1-f]quinolin-8-yl 3-(4-(bis (2-chloroethyl)amino)phenoxy) propanoate]
[1]; 15 min
  Vmax ± SE, pERK 1/2 inhibition: 56.97 ± 0.61
[1]; 30 min
  Vmax ± SE, pERK 1/2 inhibition: 66.56 ± 1.99
[1]; 60 min
  Vmax ± SE, pERK 1/2 inhibition: 71.72 ± 1.86
[1]; 0.25 h, 15 min
  IC50: 25 µM
[1]; 0.5 h, 30 min
  IC50: 10.7 µM
[1]; 1 h, 60 min
  IC50: 8.56 µM
[2]
  Median Overall Survival (OS): 127 days
  Progression Free Survival (PFS): 34 days
  Response Rate (RR): 100%
[2]; ip
  Cures (mice alive for 120 days after tumor inoculation): 3/5
  MST (mean survival time): 94.8 ± 6.3 p < 0.01 Days
  T/C% (mean survival time of treated versus saline controls): 187.8%
  TI% (Tumor Inhibition): 131.0%
  size of the primary tumor: 113 ± 14 mm^3
[3]; 15 min
  Vmax ± SE, pAKT 1/2 inhibition: 79.22 ± 0.89
[3]; 30 min
  Vmax ± SE, pAKT 1/2 inhibition: 81.78 ± 2.53
[3]; 60 min
  Vmax ± SE, pAKT 1/2 inhibition: 82.20 ± 1.68
[3]; 0.25 h, 15 min
  IC50: 29.6 µM
[3]; 0.5 h, 30 min
  IC50: 24.9 µM
[3]; 1 h, 60 min
  IC50: 21.8 µM
[4]; 15min, control ratio 1.70
  ratio [pERK1+pERK2]/[GAPDH] band intensity: 1.89
[4]; 30min, control ratio 1.70
  ratio [pERK1+pERK2]/[GAPDH] band intensity: 1.61
[4]; 1h, control ratio 1.78
  ratio [pERK1+pERK2]/[GAPDH] band intensity: 1.08
  ratio [pERK1+pERK2]/[GAPDH] band intensity, single blot (panel A): 0.54
[4]; 3h, control ratio 1.74
  ratio [pERK1+pERK2]/[GAPDH] band intensity: 0.89
[4]; 12h, control ratio 1.61
  ratio [pERK1+pERK2]/[GAPDH] band intensity: 0.85
[4]; 3h, control ratio 1.78
  ratio [pERK1+pERK2]/[GAPDH] band intensity, single blot (panel A): 0.49
[5]
  TGI (Total Growth Inhibition): 20 ± 1.5 μΜ
[6]; 30min, control ratio 1.71
  ratio [pERK1+pERK2]/[GAPDH] band intensity: 1.01
[6]; 1h, control ratio 1.65
  ratio [pERK1+pERK2]/[GAPDH] band intensity: 0.94
[6]; 3h, control ratio 1.99
  ratio [pERK1+pERK2]/[GAPDH] band intensity: 0.83
[6]; 6h, control ratio 1.85
  ratio [pERK1+pERK2]/[GAPDH] band intensity: 0.76
[6]; 12h, control ratio 1.82
  ratio [pERK1+pERK2]/[GAPDH] band intensity: 0.76
[6]; 24h, control ratio 1.92
  ratio [pERK1+pERK2]/[GAPDH] band intensity: 0.84
[6]; 1h, control ratio 1.85
  ratio [pERK1+pERK2]/[GAPDH] band intensity, single blot (panel A): 0.51
[6]; 3h, control ratio 1.85
  ratio [pERK1+pERK2]/[GAPDH] band intensity, single blot (panel A): 0.28
[7]; [26]
  GI50: 11 ± 0.6 µM
[7]; [27]
  IC50: 92 ± 8.4 µM
[8]; 15 min
  Vmax ± SE, pAKT 1/2 inhibition: 65.97 ± 1.60
[8]; 30 min
  Vmax ± SE, pAKT 1/2 inhibition: 75.64 ± 0.99
[8]; 60 min
  Vmax ± SE, pAKT 1/2 inhibition: 78.39 ± 4.18
[8]; 0.25 h, 15 min
  IC50: > 50 µM
[8]; 0.5 h, 30 min
  IC50: 12.8 µM
[8]; 1 h, 60 min
  IC50: 14.2 µM
[9]; [26]
  GI50: 8 ± 0.9 µM
[9]; [27]
  IC50: 45 ± 3.3 µM
[10]; 15 min
  Vmax ± SE, pAKT 1/2 inhibition: 57.59 ± 1.42
[10]; 30 min
  Vmax ± SE, pAKT 1/2 inhibition: 60.90 ± 3.82
[10]; 60 min
  Vmax ± SE, pAKT 1/2 inhibition: 63.84 ± 5.49
[10]; 0.25 h, 15 min
  IC50: 36.2 µM
[10]; 0.5 h, 30 min
  IC50: 26.6 µM
[10]; 1 h, 60 min
  IC50: 19.4 µM
[11]; [26]
  GI50: 30 ± 2.1 µM
[11]; [27]
  IC50: 56 ± 3.2 µM
[12]
  TGI (Total Growth Inhibition): 76 ± 7.2 μΜ
[13]; 15 min
  Vmax ± SE, pAKT 1/2 inhibition: 63.02 ± 1.33
[13]; 30 min
  Vmax ± SE, pAKT 1/2 inhibition: 68.23 ± 0.99
[13]; 60 min
  Vmax ± SE, pAKT 1/2 inhibition: 70.28 ± 2.75
[13]; UWB1289, 0.25 h, 15 min
  IC50: 14.1 µM
[13]; UWB1289, 0.5 h, 30 min
  IC50: 8.24 µM
[13]; UWB1289, 1 h, 60 min
  IC50: 6.6 µM
[14]; 15min, control ratio 0.98
  ratio [pAKT]/[GAPDH] band intensity: 1.04
[14]; 30min, control ratio 0.98
  ratio [pAKT]/[GAPDH] band intensity: 0.66
[14]; 1h, control ratio 1.02
  ratio [pAKT]/[GAPDH] band intensity: 0.63
[14]; 3h, control ratio 0.99
  ratio [pAKT]/[GAPDH] band intensity: 0.52
[14]; 12h, control ratio 0.94
  ratio [pAKT]/[GAPDH] band intensity: 0.50
[14]; 1h
  ratio [pAKT]/[GAPDH] band intensity, single blot (panel A): 0.22
[14]; 3h
  ratio [pAKT]/[GAPDH] band intensity, single blot (panel A): 0.20
[15]
  TGI (Total Growth Inhibition): 40 ± 2.7 μΜ
[16]
  LD10: 75 mg/kg
[17]; [26]
  GI50: 18 ± 1 µM
[17]; [27]
  IC50: 88 ± 8.1 µM
[18]; 15 min
  Vmax ± SE, pERK 1/2 inhibition: 56.77 ± 0.49
[18]; 30 min
  Vmax ± SE, pERK 1/2 inhibition: 61.29 ± 1.88
[18]; 60 min
  Vmax ± SE, pERK 1/2 inhibition: 63.79 ± 1.33
[18]; 0.25 h, 15 min
  IC50: 48.9 µM
[18]; 0.5 h, 30 min
  IC50: 17.8 µM
[18]; 1 h, 60 min
  IC50: 9.51 µM
[19]
  TGI (Total Growth Inhibition): 76 ± 7.2 μΜ
[20]; 15 min
  Vmax ± SE, pERK 1/2 inhibition: 45.92 ± 2.07
[20]; 30 min
  Vmax ± SE, pERK 1/2 inhibition: 71.49 ± 0.55
[20]; 60 min
  Vmax ± SE, pERK 1/2 inhibition: 74.32 ± 0.43
[20]; 0.25 h, 15 min
  IC50: > 50 µM
[20]; 0.5 h, 30 min
  IC50: 11.2 µM
[20]; 1 h, 60 min
  IC50: 7.67 µM
[21]
  Median Overall Survival (OS): 105 days
  Progression Free Survival (PFS): 13 days
  Response Rate (RR): 100%
[21]; ip
  Cures (mice alive for 120 days after tumor inoculation): 2/5
  MST (mean survival time): 76.5 ± 3.9 p < 0.01 Days
  T/C% (mean survival time of treated versus saline controls): 187.9%
  TI% (Tumor Inhibition): 76.4%
  size of the primary tumor: 390 ± 21.4 mm^3
[22]
  TGI (Total Growth Inhibition): 60 ± 2.7 μΜ
[23]; 15 min
  Vmax ± SE, pERK 1/2 inhibition: 73.97 ± 1.64
[23]; 60 min
  Vmax ± SE, pERK 1/2 inhibition: 88.83 ± 2.13
[23]; UWB1289, 0.25 h, 15 min
  IC50: 7.02 µM
[23]; UWB1289, 0.5 h, 30 min
  IC50: 4.25 µM
[23]; UWB1289, 1 h, 60 min
  IC50: 3.67 µM
[24]; [26]
  GI50: 10 ± 0.5 µM
[24]; [27]
  IC50: > 100 µM
[25]; 15 min
  Vmax ± SE, pAKT 1/2 inhibition: 60.45 ± 3.65
[25]; 30 min
  Vmax ± SE, pAKT 1/2 inhibition: 61.17 ± 0.62
[25]; 60 min
  Vmax ± SE, pAKT 1/2 inhibition: 61.47 ± 2.03
[25]; 0.25 h, 15 min
  IC50: > 50 µM
[25]; 0.5 h, 30 min
  IC50: 34.2 µM
[25]; 1 h, 60 min
  IC50: 28.3 µM
